{"source": "patent US9789121B2", "about": "“Small molecules that replace or agonize p53 function” (BUCK INSTITUTE, priority 2004, dated 2017)", "key": {"[1]": {"system": "p53/Bax reporter in HEK293T cells", "assay": "p53/Bax luciferase reporter system in HEK293T cells", "assay_type": "cell-based", "excerpt": "To identify p53 mimics, we developed a live mammalian cell system that reports the promotion of the expression of the pro-apoptotic Bax protein. The bax promoter consists of a 372 nucleotide 5′ UTR, a TATAA sequence, and several consensus sequences that bind p53, resulting in up-regulation of Bax expression (see, e.g., FIG. 1). By expressing these sites upstream of the gene encoding luciferase in HEK293T cells, we have established a novel set of reporter cell lines. These cells provide a system which allows identification of both direct activators of Bax expression and replacements of an apoptotic function of p53. In initial studies, cotransfection of a p53 expression plasmid with a reporter bearing oligomerized consensus binding sites yielded strongly luminescent cells, whereas cotransfection with an irrelevant plasmid gave no luminescence. […] By employing the Multi-Probe H liquid handling robotic system and the ultra-sensitive Top-Count luminometer, high-speed screening of thousands of compounds has been enabled at the Buck Institute. We obtained and screened a 2000 compound small molecule library made available by the National Cancer Institute in our p53 reporter system in HEK293T cells."}, "[2]": {"system": "PC3", "assay": "G6 sensitivity of prostate cell line PC3 (p53 null)", "assay_type": "cell-based", "conditions": "listed as Rp53-1"}, "[3]": {"system": "DU145", "assay": "G6 sensitivity of prostate cell line DU145 (p53 Mt)", "assay_type": "cell-based", "conditions": "listed as Rp53-1"}, "[4]": {"system": "LNcap", "assay": "G6 sensitivity of prostate cell line LNcap (p53 WT)", "assay_type": "cell-based", "conditions": "listed as Rp53-1"}, "[5]": {"system": "ColoHSR", "assay": "G6 sensitivity of colon cell line ColoHSR (p53 Mt)", "assay_type": "cell-based", "conditions": "listed as Rp53-1"}, "[6]": {"system": "SW480", "assay": "G6 sensitivity of colon cell line SW480 (p53 Mt)", "assay_type": "cell-based", "conditions": "listed as Rp53-1"}, "[7]": {"system": "Lovo", "assay": "G6 sensitivity of colon cell line Lovo (p53 WT)", "assay_type": "cell-based", "conditions": "listed as Rp53-1"}, "[8]": {"system": "HT29", "assay": "G6 sensitivity of colon cell line HT29 (p53 Mt)", "assay_type": "cell-based", "conditions": "listed as Rp53-1"}, "[9]": {"system": "MDA-435", "assay": "G6 sensitivity of breast cancer cells MDA-435 (p53 Mt)", "assay_type": "cell-based, human", "conditions": "MDA-435, breast, listed as Rp53-1", "protocol": "To assess the ability of the small molecule compound Rp53-1 to mimic the transcription-promoting functions of p53 leading to Bax expression and induction of cell death, p53-mutated MDA-MB-435 and p53-wild-type MCF-7 human breast cancer cells were treated with Rp53-1. […] Lack of toxicity in cells generating normal p53 activity (all other human cells) would reduce possible side effects. Inherent in the initial drug design was a strategy to develop a therapy that targets mutant p53 containing cells and that would leave healthy cells expressing normal p53 unaffected (FIG. 3)."}, "[10]": {"system": "Saos-2", "assay": "G6 sensitivity of osteosarcoma cell line Saos-2 (p53 null)", "assay_type": "cell-based", "conditions": "Saos-2, osteosarcoma, listed as Rp53-1"}, "[11]": {"system": "breast cancer cells", "assay": "Single pulse treatment of breast cancer cells with G6", "assay_type": "cell-based", "conditions": "single pulse of G6 in the nanomolar range", "excerpt": "Thus G6 appears to be a potent treatment."}, "[12]": {"system": "p53 Reporter in p53 Mt and Null Cells", "assay": "p53 reporter in p53 Mt and Null cells", "assay_type": "cell-based"}, "[13]": {"system": "human osteosarcoma xenografted nude mice", "assay": "G6 treatment of human osteosarcoma xenografted nude mice", "assay_type": "in vivo", "excerpt": "Initial trials of G6 in human osteosarcoma xenografted nude mice have shown promise (FIG. 10). Mice bearing p53 abnormal tumors have responded well to G6. […] Further mouse studies are currently underway."}, "[14]": {"system": "p53 defective tumor cell line", "assay": "G6 treatment of p53 defective tumor cell lines", "assay_type": "cell-based", "conditions": "every p53 defective tumor cell line treated", "excerpt": "(§1) Inherent in the initial drug design was a strategy to develop a therapy that targets mutant p53 containing cells and that would leave healthy cells expressing normal p53 unaffected (FIG. 3)."}, "[15]": {"system": "wild type cells from corresponding normal tissue", "assay": "G6 treatment of wild type cells from corresponding normal tissue", "assay_type": "cell-based", "excerpt": "as §1"}}, "note": "“Also recorded” adds a separate entry of the source.", "data": [{"molecule": "Cc1cc(OCc2nc(N)nc(N)c2-c2ccc(Cl)c(Cl)c2)ccc1[N+](=O)[O-]", "note": "[G6]", "values": [{"measurement": "expression of luciferase levels relative to transfected wild-type p53", "setting": "[1]; high concentrations (10 μM)", "value": "greater than transfected wild-type p53"}, {"measurement": "luciferase expression and activity (p53 reporter)", "setting": "[1]; listed as Rp53-1", "value": "activates the p53/Bax reporter; also recorded: significant levels of luciferase activity"}, {"measurement": "G6 Sensitivity", "setting": "[2]", "value": "sensitive"}, {"measurement": "G6 Sensitivity", "setting": "[3]", "value": "sensitive"}, {"measurement": "G6 Sensitivity", "setting": "[4]", "value": "resistant"}, {"measurement": "G6 Sensitivity", "setting": "[5]", "value": "sensitive"}, {"measurement": "G6 Sensitivity", "setting": "[6]", "value": "sensitive"}, {"measurement": "G6 Sensitivity", "setting": "[7]", "value": "resistant"}, {"measurement": "G6 Sensitivity", "setting": "[8]", "value": "sensitive"}, {"measurement": "G6 Sensitivity", "setting": "[9]", "value": "sensitive"}, {"measurement": "G6 Sensitivity", "setting": "[10]", "value": "sensitive"}, {"measurement": "activation of the cell death program / drug efficacy", "setting": "[11]", "value": "complete drug efficacy; also recorded: sufficient to activate the cell death program"}, {"measurement": "induction of p53 Reporter", "setting": "[12]", "value": "induces p53 Reporter"}, {"measurement": "adverse side effects", "setting": "[13]; human osteosarcoma xenografted nude mice treated with G6", "value": "none of the mice have shown adverse side effects"}, {"measurement": "tumor regression", "setting": "[13]; nude mice implanted with human osteosarcoma tissue, p53 abnormal tumors", "value": "complete regression of tumor"}, {"measurement": "susceptibility to G6", "setting": "[14]", "value": "showed susceptibility"}, {"measurement": "effect of G6 on wild type cells", "setting": "[15]", "value": "unaffected"}]}]}
